This is an account of results in article PMC4527756 (Bioorganic & medicinal chemistry, 2015).

The target in experiment [1] is α4β2* nAChR (Rattus norvegicus, UniProt P09483+P12390). Kind of experiment: radioligand binding assay, α4β2* nAChR. Conditions: for Measured activity scale: class of measured α4β2* Ki; for affinity for nAChR subtypes (in words): α4β2* and other nAChR subtypes tested. On the set-up: species or system Sprague-Dawley rat.
The target of a further experiment is α7* nAChR (Rattus norvegicus, UniProt Q05941). Kind of experiment: radioligand binding assay, α7* nAChR. On the set-up: species or system Sprague-Dawley rat.
Sequence of α7* nAChR (Q05941 23-502): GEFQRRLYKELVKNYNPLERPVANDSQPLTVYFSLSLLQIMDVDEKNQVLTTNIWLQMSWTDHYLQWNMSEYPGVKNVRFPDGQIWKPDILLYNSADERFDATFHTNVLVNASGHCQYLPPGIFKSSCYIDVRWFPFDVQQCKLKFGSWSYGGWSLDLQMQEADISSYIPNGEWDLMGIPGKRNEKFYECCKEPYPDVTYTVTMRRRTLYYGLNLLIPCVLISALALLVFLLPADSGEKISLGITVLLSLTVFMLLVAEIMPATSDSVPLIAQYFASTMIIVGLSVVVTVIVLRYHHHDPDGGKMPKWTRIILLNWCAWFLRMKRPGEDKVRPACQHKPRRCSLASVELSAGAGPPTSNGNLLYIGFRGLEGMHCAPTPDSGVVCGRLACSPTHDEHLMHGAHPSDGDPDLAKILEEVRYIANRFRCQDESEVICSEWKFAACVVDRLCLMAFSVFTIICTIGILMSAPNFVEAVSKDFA
The next experiment deals with α3β4* nAChR (Sus scrofa, UniProt A0A287A7Z4+O18764). Kind of experiment: radioligand binding assay, α3β4* nAChR. On the set-up: species or system pig.
The subject of experiment [2] is α4β2* nAChR. Particulars: [3H]cytisine, cited from earlier work; for Ki: read-out: α4β2* Ki.
Experiment [3] deals with (α1)2β1γδ ("muscle type") nAChR (Tetronarce californica, UniProt P02710+P02714+P02718). The experiment is described as follows: radioligand binding assay, muscle type nAChR. On the set-up: species or system Torpedo californica.
Sequence of (α1)2β1γδ ("muscle type") nAChR (P02718 22-522): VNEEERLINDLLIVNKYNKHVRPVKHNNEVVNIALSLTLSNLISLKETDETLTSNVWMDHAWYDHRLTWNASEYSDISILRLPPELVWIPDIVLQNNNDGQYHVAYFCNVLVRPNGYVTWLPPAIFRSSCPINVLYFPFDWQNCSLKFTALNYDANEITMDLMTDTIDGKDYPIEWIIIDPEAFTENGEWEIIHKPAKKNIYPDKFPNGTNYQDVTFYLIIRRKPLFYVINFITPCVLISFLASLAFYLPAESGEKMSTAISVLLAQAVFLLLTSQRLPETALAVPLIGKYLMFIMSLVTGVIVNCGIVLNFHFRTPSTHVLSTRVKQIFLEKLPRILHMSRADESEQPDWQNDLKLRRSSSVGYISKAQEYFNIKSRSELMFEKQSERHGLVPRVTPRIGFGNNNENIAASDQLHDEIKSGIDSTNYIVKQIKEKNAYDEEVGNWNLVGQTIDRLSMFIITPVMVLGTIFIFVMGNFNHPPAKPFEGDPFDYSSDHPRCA
Sequence of (α1)2β1γδ ("muscle type") nAChR (P02714 18-506): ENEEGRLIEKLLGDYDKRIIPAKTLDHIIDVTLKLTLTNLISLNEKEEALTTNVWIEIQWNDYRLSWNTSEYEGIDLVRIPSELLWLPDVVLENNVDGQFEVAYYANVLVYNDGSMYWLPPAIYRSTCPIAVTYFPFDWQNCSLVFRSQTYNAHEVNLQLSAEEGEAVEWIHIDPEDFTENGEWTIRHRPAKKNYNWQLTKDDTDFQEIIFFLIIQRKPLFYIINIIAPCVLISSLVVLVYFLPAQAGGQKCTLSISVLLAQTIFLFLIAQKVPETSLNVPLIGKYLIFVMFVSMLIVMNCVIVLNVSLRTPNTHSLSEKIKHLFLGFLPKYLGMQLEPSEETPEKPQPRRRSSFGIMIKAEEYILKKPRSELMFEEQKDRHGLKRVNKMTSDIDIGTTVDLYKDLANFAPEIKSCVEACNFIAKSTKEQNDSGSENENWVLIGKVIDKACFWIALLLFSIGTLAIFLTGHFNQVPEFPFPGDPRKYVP
Sequence of (α1)2β1γδ ("muscle type") nAChR (P02710 25-461): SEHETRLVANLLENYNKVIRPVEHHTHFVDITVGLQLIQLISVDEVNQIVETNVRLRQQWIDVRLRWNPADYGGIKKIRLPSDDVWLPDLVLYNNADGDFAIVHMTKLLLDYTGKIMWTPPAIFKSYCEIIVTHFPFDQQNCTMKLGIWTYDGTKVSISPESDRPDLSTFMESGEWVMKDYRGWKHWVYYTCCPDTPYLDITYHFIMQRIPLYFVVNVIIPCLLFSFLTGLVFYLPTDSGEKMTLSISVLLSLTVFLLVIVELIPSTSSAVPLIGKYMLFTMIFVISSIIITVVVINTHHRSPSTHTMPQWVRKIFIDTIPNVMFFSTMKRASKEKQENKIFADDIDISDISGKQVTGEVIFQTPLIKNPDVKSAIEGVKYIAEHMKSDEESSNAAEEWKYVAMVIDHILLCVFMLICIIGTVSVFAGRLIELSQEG
Sequence of (α1)2β1γδ ("muscle type") nAChR (P02712 25-493, further chain): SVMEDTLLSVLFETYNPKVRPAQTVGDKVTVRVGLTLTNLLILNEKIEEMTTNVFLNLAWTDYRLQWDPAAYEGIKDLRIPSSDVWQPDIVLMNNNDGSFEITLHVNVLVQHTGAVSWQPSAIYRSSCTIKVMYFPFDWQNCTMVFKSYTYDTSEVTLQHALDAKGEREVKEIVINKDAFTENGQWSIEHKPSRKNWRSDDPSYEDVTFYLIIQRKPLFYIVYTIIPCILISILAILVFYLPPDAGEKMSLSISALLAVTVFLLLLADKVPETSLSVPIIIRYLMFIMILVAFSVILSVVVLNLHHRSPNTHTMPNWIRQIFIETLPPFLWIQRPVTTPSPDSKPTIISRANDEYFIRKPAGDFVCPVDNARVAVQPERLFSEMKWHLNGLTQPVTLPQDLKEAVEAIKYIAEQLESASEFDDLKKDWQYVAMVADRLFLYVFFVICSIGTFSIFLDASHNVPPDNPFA
Experiment [4] has as its target α4β2* nAChR. Particulars: read-out: α4β2* Ki; cited from earlier work.
The subject of the next experiment is mouse tail-flick test. Conditions: cited from earlier work.
The next experiment has as its system α7 nAChR. Particulars: read-out: α7 nAChR IC50; selective α7 nAChR agonist; cited from earlier work.
Experiment [5] deals with mouse tail suspension test. Particulars: cited from earlier work.
For another experiment, the system named is α4β2* nAChRs. Particulars: cited from earlier work.

SMILES strings stand for the structures. Where two headings read alike, the source gives them in different places.

Sequence of α4β2* nAChR (Rattus norvegicus, UniProt P09483+P12390) (P09483 31-630): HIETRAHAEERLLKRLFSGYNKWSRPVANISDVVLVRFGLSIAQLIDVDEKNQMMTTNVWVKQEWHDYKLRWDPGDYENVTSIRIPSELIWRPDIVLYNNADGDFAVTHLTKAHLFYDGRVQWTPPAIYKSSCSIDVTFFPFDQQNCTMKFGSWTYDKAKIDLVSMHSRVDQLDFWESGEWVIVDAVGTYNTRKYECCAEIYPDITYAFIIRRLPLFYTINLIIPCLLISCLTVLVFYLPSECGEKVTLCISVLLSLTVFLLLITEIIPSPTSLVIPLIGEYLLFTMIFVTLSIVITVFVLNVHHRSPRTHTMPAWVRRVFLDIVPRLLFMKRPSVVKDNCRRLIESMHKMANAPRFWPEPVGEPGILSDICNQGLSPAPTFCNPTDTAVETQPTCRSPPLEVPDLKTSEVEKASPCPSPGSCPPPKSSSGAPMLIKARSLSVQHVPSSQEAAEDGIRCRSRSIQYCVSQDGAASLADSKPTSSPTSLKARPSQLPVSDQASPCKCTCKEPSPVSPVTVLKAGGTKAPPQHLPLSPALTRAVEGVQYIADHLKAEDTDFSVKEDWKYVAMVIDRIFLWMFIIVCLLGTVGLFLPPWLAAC
Sequence of α4β2* nAChR (Rattus norvegicus, UniProt P09483+P12390) (P12390 25-500): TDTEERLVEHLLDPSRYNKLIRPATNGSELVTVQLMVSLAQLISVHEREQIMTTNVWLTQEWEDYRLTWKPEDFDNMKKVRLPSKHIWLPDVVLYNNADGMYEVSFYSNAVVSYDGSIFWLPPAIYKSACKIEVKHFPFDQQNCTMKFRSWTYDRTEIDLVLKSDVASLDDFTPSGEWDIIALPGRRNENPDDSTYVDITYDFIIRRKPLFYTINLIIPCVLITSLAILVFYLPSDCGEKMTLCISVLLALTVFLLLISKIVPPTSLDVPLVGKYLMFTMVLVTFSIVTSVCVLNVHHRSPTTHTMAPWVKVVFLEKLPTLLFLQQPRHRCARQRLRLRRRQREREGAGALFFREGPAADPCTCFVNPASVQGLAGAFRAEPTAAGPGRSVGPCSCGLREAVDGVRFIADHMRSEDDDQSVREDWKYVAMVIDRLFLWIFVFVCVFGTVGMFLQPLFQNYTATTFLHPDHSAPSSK

Turning to `CN(C)CCOc1cncc(N2CCC(O)CC2)c1` [Compound 26, 1-(5-(2-(dimethylamino)ethoxy)pyridin-3-yl)piperidin-4-ol], at α4β2* nAChR [1], the Measured activity scale entry was “++ (moderately active ++, 150 nM < Ki < 1,000 nM)”. For the same compound, the “interaction with α7* nAChR (in words)” value on α7* nAChR is on record as “no activity”.

Consider `CN(C)CCOc1cncc(-c2cncc(OCCN(C)C)c2)c1` [Compound 10, 2,2′-([3,3′-bipyridine]-5,5′-diylbis(oxy))bis(N,N-dimethylethanamine)], for which the “interaction with α3β4* nAChR (in words)” value on α3β4* nAChR is “no interaction”. On α4β2* nAChR [1] (versus compound 9), the “fold decreased α4β2* affinity in comparison with single entity 9” value is listed as “approximately nine-fold”. Besides, the “interaction with α7* nAChR (in words)” value at α7* nAChR is recorded as “no interaction”.

On to `CN1CCCN(c2cccnc2)CC1` [Compound 12b], for which the IC50 in the experiment on α4β2* nAChR [2] (read-out: α4β2* (IC50), printed as IC50 in Ki column) was 150 nM.

As for `CN(C)CCOc1cncc(N2CCNCC2)c1` [Compound 20a, N,N-dimethyl-2-{[5-(piperazin-1-yl)pyridin-3-yl]oxy}ethanamine], the Ki in experiment [3] was > 1000 nM. Also, at α4β2* nAChR [1], the “fold lower α4β2* affinity in comparison with compound 17a” value was “about 770 fold” and the Measured activity scale result was “+++ (highly active +++, Ki < 150 nM)”.

As for `CN1CCN(c2cccnc2)CC1` [Compound 13b], the Ki on α4β2* nAChR [2] (ref 26) was 90 nM.

Consider `c1cncc(N2CCNCC2)c1` [Compound 13a], for which the Ki at α4β2* nAChR [2] (ref 26) is 90 nM.

Turning to `CN(C)CCOc1cncc(N2CCCN(C)CC2)c1` [Compound 19a, N,N-dimethyl-2-((5-(4-methyl-1,4-diazepan-1-yl)pyridin-3-yl)oxy)ethanamine], at α4β2* nAChR [1], the Ki is 6.9 nM and the Measured activity scale entry is given as “++ (moderately active ++, 150 nM < Ki < 1,000 nM)”.

Regarding `CN1[C@@H](CC(=O)c2ccccc2)CCC[C@H]1C[C@H](O)c1ccccc1` [Lobeline 1, lobeline], the Ki at α4β2* nAChR [4] is 4 to 30 nM.

For `CN(C)CCOc1cc(F)cc(N2CC3CNCC(C3)C2)c1` [Compound 17b, 2-(3-(3,7-diazabicyclo[3.3.1]nonan-3-yl)-5-fluorophenoxy)-N,N-dimethylethanamine], the Ki in experiment [3] is > 1000 nM.

Take `CN(C)CCOc1cncc(N2CCCC2)c1` [Compound 23, N,N-dimethyl-2-{[5-(pyrrolidin-1-yl)pyridin-3-yl]oxy}ethanamine]: at α4β2* nAChR [1], the Measured activity scale result was “+ (inactive +, Ki > 1,000 nM)” and the “affinity for nAChR subtypes (in words)” value is “complete loss of affinity”.

For the compound `CN(C)CCOc1cccnc1` [Compound 9, N,N-dimethyl-2-(pyridin-3-yloxy)ethan-1-amine], the Ki on α4β2* nAChR [2] (ref 23) was 32.6 nM; at α4β2* nAChR [2] (ref 24), 24 nM. Besides, in the experiment with mouse tail-flick test, the “In vivo activity ED50” value was “ED50 (mg/kg) = 15 (mouse tail-flick test) [24]”.

As for `CCN(CC)CCOc1ccc2c(c1)C(=O)c1cc(OCCN(CC)CC)ccc1-2` [tilorone 8, tilorone], the half-maximal inhibitory concentration (IC50) in the experiment with α7 nAChR is 110 nM.

With `CN(C)CCOc1cncc(N2CC3CNCC(C3)C2)c1` [Compound 17a, 2-((5-(3,7-diazabicyclo[3.3.1]nonan-3-yl)pyridin-3-yl)oxy)-N,N-dimethylethanamine], the Ki in experiment [3] is > 1000 nM. The Measured activity scale entry on α4β2* nAChR [1] is given as “+++ (highly active +++, Ki < 150 nM)”. In addition, the “effect in the mouse tail suspension test (in words)” value in experiment [5] is listed as “efficacy in the mouse tail suspension test”. Further, in the experiment on α4β2* nAChRs, the “functional activity for α4β2* nAChRs (in words)” value is on record as “partial agonist activity”.

Regarding `CN(C)CCOc1cncc(N2CCC2)c1` [Compound 22, 2-{[5-(azetidin-1-yl)pyridin-3-yl]oxy}-N,N-dimethylethanamine], the Measured activity scale result on α4β2* nAChR [1] was “++ (moderately active ++, 150 nM < Ki < 1,000 nM)”. Further, the “interaction with α7* nAChR (in words)” value at α7* nAChR is listed as “no activity”.

With `CN(C)CCOc1cncc(N2CCN(C)CC2)c1` [Compound 21a, N,N-dimethyl-2-{[5-(4-methylpiperazin-1-yl)pyridin-3-yl]oxy}ethanamine], the inhibition constant Ki in [3] is > 1000 nM. Besides, the Measured activity scale entry at α4β2* nAChR [1] is “+++ (highly active +++, Ki < 150 nM)”.

`CN(C)CCOc1cncc(N2CCCNCC2)c1` [Compound 18a, 2-((5-(1,4-diazepan-1-yl)pyridin-3-yl)oxy)-N,N-dimethylethanamine]: the Ki in experiment [3] is > 1000 nM. For the same compound, on α4β2* nAChR [1], the Measured activity scale entry is given as “+++ (highly active +++, Ki < 150 nM)”.

With `CN(C)CCOc1cncc(N2CCOCC2)c1` [Compound 25, N,N-dimethyl-2-{[5-(morpholin-4-yl)pyridin-3-yl]oxy}ethanamine], at α4β2* nAChR [1], the Measured activity scale result was “+ (inactive +, Ki > 1,000 nM)” and the “affinity for nAChR subtypes (in words)” value was “complete loss of affinity”.

For the compound `CN(C)CCOc1cc(N2CC3CNCC(C3)C2)cc(F)c1F` [Compound 17c, 2-(5-(3,7-diazabicyclo[3.3.1]nonan-3-yl)-2,3-difluorophenoxy)-N,N-dimethylethanamine], the Ki in experiment [3] was > 1000 nM.

Turning to `CN(C)CCOc1cncc(N2CCCCC2)c1` [Compound 24, N,N-dimethyl-2-{[5-(piperidin-1-yl)pyridin-3-yl]oxy}ethanamine], at α4β2* nAChR [1], the Measured activity scale entry was “+ (inactive +, Ki > 1,000 nM)” and the “affinity for nAChR subtypes (in words)” value is on record as “complete loss of affinity”.

What is called IC50 is the midpoint of a concentration-inhibition curve. The Ki is a dissociation constant, usually derived from enzyme kinetics or from competition with a known ligand.
